What was measured:
[1] = target: human sodium channel Nav 1.8 (Homo sapiens (Human), UniProt Q9Y5Y9); experiment: Automated whole-cell voltage-clamp (ScreenPatch 384P), Nav 1.8 sodium current, Protocol 2; type: cell-based; conditions: read-out: Nav1.8 IC50
Outline: (§1)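 Peak TP1A sodium current block, scaled between DMSO vehicle and positive control, was fitted with a Hill equation to give IC50 at eight compound concentrations (≥5 min, room temperature) in stable CHO lines. Protocol 2 (0.05 Hz) used an 8 s −40 mV inactivating prepulse from −100 mV; Protocol 1 (0.1 Hz) held at −90 mV; test steps 10 mV for Nav1.8, 0 mV for Nav1.7.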

[2] = target: human sodium channel Nav 1.7 (Homo sapiens (Human), UniProt Q15858); experiment: Automated whole-cell voltage-clamp (ScreenPatch 384P), Nav 1.7 sodium current, Protocol 2; type: cell-based; conditions: read-out: Nav1.7 IC50
Sequence of human sodium channel Nav 1.7 (Q15858 whole entry): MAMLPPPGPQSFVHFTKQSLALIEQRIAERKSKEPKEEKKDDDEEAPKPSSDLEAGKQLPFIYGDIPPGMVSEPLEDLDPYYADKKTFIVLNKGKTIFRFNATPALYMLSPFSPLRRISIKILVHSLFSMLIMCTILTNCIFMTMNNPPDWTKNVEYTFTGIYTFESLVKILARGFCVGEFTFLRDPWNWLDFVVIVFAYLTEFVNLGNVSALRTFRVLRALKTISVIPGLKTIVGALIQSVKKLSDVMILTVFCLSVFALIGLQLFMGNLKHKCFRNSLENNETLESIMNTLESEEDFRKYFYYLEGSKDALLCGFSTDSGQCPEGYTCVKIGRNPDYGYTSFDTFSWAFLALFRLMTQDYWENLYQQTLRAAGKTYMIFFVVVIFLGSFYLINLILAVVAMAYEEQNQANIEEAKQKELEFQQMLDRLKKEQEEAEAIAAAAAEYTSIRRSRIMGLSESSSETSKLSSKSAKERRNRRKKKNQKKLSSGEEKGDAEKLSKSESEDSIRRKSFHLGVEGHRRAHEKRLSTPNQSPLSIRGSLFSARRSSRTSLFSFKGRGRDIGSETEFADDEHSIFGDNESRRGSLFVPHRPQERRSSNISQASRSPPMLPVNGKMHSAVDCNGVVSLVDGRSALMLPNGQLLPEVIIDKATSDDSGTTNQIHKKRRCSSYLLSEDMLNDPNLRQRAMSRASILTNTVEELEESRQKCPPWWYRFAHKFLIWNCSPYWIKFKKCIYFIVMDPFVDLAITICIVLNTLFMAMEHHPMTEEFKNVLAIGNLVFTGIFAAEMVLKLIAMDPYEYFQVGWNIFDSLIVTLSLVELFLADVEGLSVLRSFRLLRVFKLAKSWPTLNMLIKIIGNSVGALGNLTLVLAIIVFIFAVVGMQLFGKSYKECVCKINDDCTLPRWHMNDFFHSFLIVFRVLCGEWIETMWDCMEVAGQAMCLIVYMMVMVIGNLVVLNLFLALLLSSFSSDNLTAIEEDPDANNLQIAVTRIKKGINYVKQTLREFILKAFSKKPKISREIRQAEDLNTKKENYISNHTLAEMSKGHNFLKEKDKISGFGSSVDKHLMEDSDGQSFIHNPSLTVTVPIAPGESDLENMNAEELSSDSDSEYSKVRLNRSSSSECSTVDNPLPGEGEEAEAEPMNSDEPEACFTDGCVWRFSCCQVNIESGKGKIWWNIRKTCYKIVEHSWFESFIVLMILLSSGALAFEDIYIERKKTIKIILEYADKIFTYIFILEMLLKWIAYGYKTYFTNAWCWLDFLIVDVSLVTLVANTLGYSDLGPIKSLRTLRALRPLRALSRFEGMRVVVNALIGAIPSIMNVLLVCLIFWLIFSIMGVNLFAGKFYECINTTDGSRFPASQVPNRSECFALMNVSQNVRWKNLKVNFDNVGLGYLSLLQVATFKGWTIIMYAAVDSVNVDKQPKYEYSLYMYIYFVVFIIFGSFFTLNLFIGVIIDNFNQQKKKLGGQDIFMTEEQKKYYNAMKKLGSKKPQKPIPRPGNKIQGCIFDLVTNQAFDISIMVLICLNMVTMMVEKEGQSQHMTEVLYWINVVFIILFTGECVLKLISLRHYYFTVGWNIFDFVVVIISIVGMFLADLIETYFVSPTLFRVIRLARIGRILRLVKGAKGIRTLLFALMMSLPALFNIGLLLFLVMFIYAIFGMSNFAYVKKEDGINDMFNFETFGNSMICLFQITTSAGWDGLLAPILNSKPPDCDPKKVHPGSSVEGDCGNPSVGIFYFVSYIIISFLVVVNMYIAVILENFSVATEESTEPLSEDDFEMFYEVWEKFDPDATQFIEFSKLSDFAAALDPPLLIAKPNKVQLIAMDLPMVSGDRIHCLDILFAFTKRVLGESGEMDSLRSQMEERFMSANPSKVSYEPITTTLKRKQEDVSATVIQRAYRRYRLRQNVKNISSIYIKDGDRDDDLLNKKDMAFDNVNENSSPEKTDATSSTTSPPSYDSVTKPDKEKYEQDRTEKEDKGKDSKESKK
Outline: as §1

Sequence of human sodium channel Nav 1.8 (Q9Y5Y9 whole entry): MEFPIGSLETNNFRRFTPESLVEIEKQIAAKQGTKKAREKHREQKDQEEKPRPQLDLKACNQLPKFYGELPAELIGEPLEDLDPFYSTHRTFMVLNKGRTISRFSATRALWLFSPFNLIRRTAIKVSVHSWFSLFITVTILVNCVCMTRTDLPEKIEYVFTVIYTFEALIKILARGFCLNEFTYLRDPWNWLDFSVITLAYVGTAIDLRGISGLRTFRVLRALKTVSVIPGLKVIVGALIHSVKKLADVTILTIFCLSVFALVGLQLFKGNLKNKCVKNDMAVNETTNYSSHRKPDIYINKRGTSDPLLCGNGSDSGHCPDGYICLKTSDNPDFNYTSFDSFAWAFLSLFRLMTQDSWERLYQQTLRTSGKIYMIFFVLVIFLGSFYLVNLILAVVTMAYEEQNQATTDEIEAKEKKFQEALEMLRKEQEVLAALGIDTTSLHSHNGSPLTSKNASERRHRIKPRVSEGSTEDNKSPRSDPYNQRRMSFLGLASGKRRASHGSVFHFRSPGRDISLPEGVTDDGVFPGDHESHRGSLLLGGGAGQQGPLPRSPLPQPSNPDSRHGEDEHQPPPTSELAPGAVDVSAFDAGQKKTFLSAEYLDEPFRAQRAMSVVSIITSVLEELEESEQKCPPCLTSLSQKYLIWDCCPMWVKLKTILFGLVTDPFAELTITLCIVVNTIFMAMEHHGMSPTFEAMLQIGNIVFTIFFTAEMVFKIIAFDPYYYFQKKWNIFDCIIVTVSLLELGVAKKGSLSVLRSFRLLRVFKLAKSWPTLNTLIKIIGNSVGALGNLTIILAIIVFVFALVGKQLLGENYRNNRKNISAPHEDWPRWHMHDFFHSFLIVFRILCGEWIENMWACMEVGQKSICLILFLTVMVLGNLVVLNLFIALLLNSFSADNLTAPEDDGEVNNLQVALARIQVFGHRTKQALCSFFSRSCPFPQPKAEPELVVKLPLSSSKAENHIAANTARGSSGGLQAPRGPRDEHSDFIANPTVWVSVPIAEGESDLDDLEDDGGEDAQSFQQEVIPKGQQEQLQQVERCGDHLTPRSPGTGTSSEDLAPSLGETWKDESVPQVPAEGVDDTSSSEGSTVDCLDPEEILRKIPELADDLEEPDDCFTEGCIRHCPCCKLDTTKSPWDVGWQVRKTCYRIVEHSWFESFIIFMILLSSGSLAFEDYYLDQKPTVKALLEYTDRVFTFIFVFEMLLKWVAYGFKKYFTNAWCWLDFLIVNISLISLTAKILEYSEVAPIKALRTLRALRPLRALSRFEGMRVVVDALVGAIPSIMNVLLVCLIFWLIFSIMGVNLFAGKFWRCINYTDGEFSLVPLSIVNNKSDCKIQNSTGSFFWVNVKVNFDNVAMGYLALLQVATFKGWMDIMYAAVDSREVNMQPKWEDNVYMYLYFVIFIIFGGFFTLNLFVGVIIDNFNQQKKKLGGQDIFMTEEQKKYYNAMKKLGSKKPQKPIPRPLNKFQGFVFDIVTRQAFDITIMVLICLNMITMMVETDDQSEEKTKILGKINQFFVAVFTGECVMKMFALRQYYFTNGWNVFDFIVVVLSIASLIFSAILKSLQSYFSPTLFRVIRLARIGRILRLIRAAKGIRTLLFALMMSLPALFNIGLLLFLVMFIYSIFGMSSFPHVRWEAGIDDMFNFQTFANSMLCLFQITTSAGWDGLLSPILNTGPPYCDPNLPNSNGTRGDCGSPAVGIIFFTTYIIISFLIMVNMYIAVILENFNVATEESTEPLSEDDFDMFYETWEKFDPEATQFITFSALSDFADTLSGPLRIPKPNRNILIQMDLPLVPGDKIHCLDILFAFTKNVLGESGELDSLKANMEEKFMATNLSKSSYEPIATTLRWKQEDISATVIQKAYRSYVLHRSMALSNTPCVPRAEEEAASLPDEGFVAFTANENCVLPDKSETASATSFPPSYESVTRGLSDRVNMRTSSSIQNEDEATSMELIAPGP

SMILES | IC50 [1] [nM] | IC50 [2] [nM]
COc1cc(/C=N/NC(=O)c2cncc(-c3ccc(OC)cc3F)n2)cc(OC)c1 [Compound 121, (E)-N′-(3,5-dimethoxybenzylidene)-6-(2-fluoro-4-methoxyphenyl)pyrazine-2-carbohydrazide] | 117 | 499
COc1cc(/C=N/NC(=O)c2cncc(-c3ccc(OC)cc3Cl)n2)cc(OC)c1 [Compound 122] | > 1000 | 5120
COc1cc(/C=N/NC(=O)c2cncc(-c3ccc(OC)cc3C(F)(F)F)n2)cc(OC)c1 [Compound 123, (E)-N′-(3,5-dimethoxybenzylidene)-6-(4-methoxy-2-(trifluromethoxy)phenyl)pyrazine-2-carbohydrazide] | 803 | 49.2
COc1cc(/C=N/NC(=O)c2cncc(-c3ccc(OC)cc3OC)n2)cc(OC)c1 [Compound 124, (E)-N′-(3,5-dimethoxybenzylidene)-6-(2,4-dimethoxyphenyl)pyrazine-2-carbohydrazide] | 73.2 | 181
COc1cc(/C=N/NC(=O)c2cncc(-c3ccccn3)n2)cc(OC)c1 [Compound 125, (E)-N′-(3,5-dimethoxybenzylidene)-6-(pyridin-2-yl)pyrazine-2-carbohydrazide] | > 1000 | > 10000
COc1cc(/C=N/NC(=O)c2cncc(N3CCOCC3)n2)cc(OC)c1 [Compound 126, (E)-N′-(3,5-dimethoxybenzylidene)-6-morpholinopyrazine-2-carbohydrazide] | > 1000 | > 10000
COc1cc(/C=N/NC(=O)c2cncc(N3CCCCC3)n2)cc(OC)c1 [Compound 127, (E)-N′-(3,5-dimethoxybenzylidene)-6-(piperidin-1-yl)pyrazine-2-carbohydrazide] | > 1000 | > 10000
CCCN1CCN(c2cncc(C(=O)N/N=C/c3cc(OC)cc(OC)c3)n2)CC1 [Compound 128, (E)-N′-(3,5-dimethoxybenzylidene)-6-(4-propylpiperazin-1-yl)pyrazine-2-carbohydrazide] | > 1000 | > 10000
COc1ccc(Oc2cnc(C(=O)N/N=C/c3cc(OC)cc(OC)c3)cn2)cc1 [Compound 130] | > 1000 | > 10000
CCc1nccnc1C(=O)N/N=C/c1cc(OC)cc(OC)c1 [Compound 132, (E)-N′-(3,5-dimethoxybenzylidene)-3-ethylpyrazine-2-carbohydrazide] | > 1000 | > 10000
CCc1cncc(C(=O)N/N=C/c2cc(OC)cc(OC)c2)n1 [Compound 133, (E)-N′-(3,5-dimethoxybenzylidene)-6-ethylpyrazine-2-carbohydrazide] | 913 | > 10000
COc1cc(/C=N/NC(=O)c2cncc(C(C)C)n2)cc(OC)c1 [Compound 134, (E)-N′-(3,5-dimethoxybenzylidene)-6-isopropylpyrazine-2-carbohydrazide] | > 1000 | > 10000
COc1cc(/C=N/NC(=O)c2nccnc2C(C)C)cc(OC)c1 [Compound 135, (E)-N′-(3,5-dimethoxybenzylidene)-3-isopropylpyrazine-2-carbohydrazide] | > 1000 | > 10000
COc1cc(/C=N/NC(=O)c2cnc(C(C)C)cn2)cc(OC)c1 [Compound 136, (E)-N′-(3,5-dimethoxybenzylidene)-5-isopropylpyrazine-2-carbohydrazide] | > 1000 | > 10000
COc1cc(/C=N/NC(=O)c2cncc(C)n2)cc(OC)c1 [Compound 137, (E)-N′-(3,5-dimethoxybenzylidene)-6-methylpyrazine-2-carbohydrazide] | > 1000 | > 10000
COc1cc(/C=N/NC(=O)c2cnc(C)cn2)cc(OC)c1 [Compound 138, (E)-N′-(3,5-dimethoxybenzylidene)-5-methylpyrazine-2-carbohydrazide] | > 1000 | > 10000
COc1cc(/C=N/NC(=O)c2nccnc2C)cc(OC)c1 [Compound 139, (E)-N′-(3,5-dimethoxybenzylidene)-3-methylpyrazine-2-carbohydrazide] | > 1000 | > 10000
COc1cc(/C=N/NC(=O)c2cncc(OC)n2)cc(OC)c1 [Compound 140, (E)-N′-(3,5-dimethoxybenzylidene)-6-methoxypyrazine-2-carbohydrazide] | > 1000 | > 10000
COc1cc(/C=N/NC(=O)c2nccnc2OC)cc(OC)c1 [Compound 141, (E)-N′-(3,5-dimethoxybenzylidene)-3-methoxypyrazine-2-carbohydrazide] | > 1000 | > 10000
COc1cc(/C=N/NC(=O)c2cnc(OC)cn2)cc(OC)c1 [Compound 142, (E)-N′-(3,5-dimethoxybenzylidene)-5-methoxypyrazine-2-carbohydrazide] | > 1000 | > 10000
CCOc1ccc(-c2cnc(C)c(C(=O)N/N=C/c3cc(OC)cc(OC)c3)n2)cc1 [Compound 143, (E)-N′-(3,5-dimethoxybenzylidene)-6-(4-ethoxyphenyl)-3-methylpyrazine-2-carbohydrazide] | 650 | 5150
CCOc1ccc(-c2cnc(CC)c(C(=O)N/N=C/c3cc(OC)cc(OC)c3)n2)cc1 [Compound 144, (E)-N′-(3,5-dimethoxybenzylidene)-6-(4-ethoxyphenyl)-3-ethylpyrazine-2-carbohydrazide] | > 300 | > 300
CCOc1ccc(-c2cnc(OC)c(C(=O)N/N=C/c3cc(OC)cc(OC)c3)n2)cc1 [Compound 145, (E)-N′-(3,5-dimethoxybenzylidene)-6-(4-ethoxyphenyl)-3-methoxypyrazine-2-carbohydrazide] | > 300 | > 300
CCOc1ccc(-c2cnc(Oc3ccccc3)c(C(=O)N/N=C/c3cc(OC)cc(OC)c3)n2)cc1 [Compound 146, (E)-N′-(3,5-dimethoxybenzylidene)-6-(4-ethoxyphenyl)-3-phenoxypyrazine-2-carbohydrazide] | > 300 | > 300
CCOc1ccc(-c2cnc(-c3ccccc3)c(C(=O)N/N=C/c3cc(OC)cc(OC)c3)n2)cc1 [Compound 147, (E)-N′-(3,5-dimethoxybenzylidene)-6-(4-ethoxyphenyl)-3-phenylpyrazine-2-carbohydrazide] | > 300 | > 300
COc1cc(/C=N/NC(=O)c2cncc(-c3ccc(OCSC)cc3)n2)cc(OC)c1 [Compound 149, (E)-N′-(3,5-dimethoxybenzylidene)-6-(4-((methylthio)methoxy)phenyl)pyrazine-2-carbohydrazide] | 60.9 | 123
Cc1cc(C)cc(/C=N/NC(=O)c2cncc(-c3ccc(OC4CCCC4)cc3)n2)c1 [Compound 150, (E)-6-(4-(cyclopentyloxy)phenyl)-N′-(3,5-dimethylbenzylidene)pyrazine-2-carbohydrazide] | 118 | 121
COc1cc(/C=N/NC(=O)c2cncc(-c3ccc(OCCN(C)C)cc3)n2)cc(OC)c1 [Compound 151, (E)-N′-(3,5-dimethoxybenzylidene)-6-(4-(2-(dimethylamino)ethoxy)phenyl)pyrazine-2-carbohydrazide] | > 1000 | > 10000
COc1cc(/C=N/NC(=O)c2cncc(-c3ccc(OCC4CC4)cc3)n2)cc(OC)c1 [Compound 152, (E)-6-(4-(cyclopropylmethoxy)phenyl)-N′-(3,5-dimethoxybenzylidene)pyrazine-2-carbohydrazide] | 88.4 | 138

Source: US20240335442A1 (Eurofarma Laboratórios S.A., priority 2021, published 2024)
